Assay results as given in patent US20240246963A1, “BIFUNCTIONAL COMPOUNDS AND PHARMACEUTICAL USES THEREOF” (RISEN (SUZHOU) PHARMA TECH CO., LTD., priority 2022, published 2024).

Legend:
RAS G12D protein = target: T1, RAS G12D protein (Homo sapiens, UniProt P01116, G12D); test: Protein degradation study (western blot) in Aspc-1 cells; assay type: cell-based; settings: for percent protein degradation at 0.005 µM: 0.005 μM compound; for Dmax: ASPC1; for DC50: half-maximum degradation concentration on G12D in Aspc-1 cells; for percent protein degradation at 0.01 µM: 0.010 μM compound; for percent protein degradation at 0.1 µM: 0.1 μM compound
T1 construct: host or cells: Aspc-1 (AsPC-1) cells
T1 sequence (P01116 1-188 isoform P01116-2 G12D): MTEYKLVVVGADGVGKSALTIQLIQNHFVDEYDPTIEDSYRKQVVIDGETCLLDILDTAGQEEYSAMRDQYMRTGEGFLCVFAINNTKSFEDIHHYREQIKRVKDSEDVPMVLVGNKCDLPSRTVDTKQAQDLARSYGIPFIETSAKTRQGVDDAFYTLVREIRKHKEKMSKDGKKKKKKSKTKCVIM
Protocol: Aspc-1 (Cobioer, CBP60546) cells in exponential growth phase were inoculated on a 6-well cell culture plate (Corning, 3516) at density of 1E6/well; and cells in the plate were cultured in a 37° C. incubator containing 5%-carbon dioxide. The next day, test compounds were dissolved in DMSO (Sigma, RNBF5902) for the preparation of a 10-mM concentration stock solution. The stock solution was diluted with complete medium (RPMI-1640 supplemented with 10% fetal bovine serum, 1% penicillin-streptomycin), yielding working solutions of various concentrations. The plate, after the addition of compounds, was placed in a 5% carbon dioxide incubator, and incubated at 37° C. for 24 hours (final DMSO concentration was 0.1%). The plate was then removed from the incubator, and the cells were washed twice with precooled PBS (Gibco, 14190250), followed by addition of 80 μL RIPA (CST, 9806S) lysis buffer (containing protease inhibitor (Invitrogen™, AM2696)) to each well. The adherent cells were scraped off with a cell scraper, and the cell lysate was transferred to a 1.5 mL centrifuge tube followed with a 30-minute incubation on ice. The lysate was then clarified with centrifugation at 12000 rpm for 10 min at 4° C. The supernatant was transferred into a new 1.5 mL centrifuge tube, and protein concentration was measured with BCA protein detection kit (Thermo Fisher, 23225). G12D protein level was assessed by western blot. A mixture of cell lysate (40 μL) and loading buffer (10 μL, 5×SDS (Beyotime, P0015L)) was denatured in a water-bath at 95° C. for 10 min. The denatured protein sample, at 30 μg/well, was loaded into a corresponding well of a 4-20% Bis-Tris gel (Kingsley, M00656). Protein samples were initially electrophoresed at 80 V for 30 minutes, followed by 120 V for 40 minutes, until the bromophenol blue strip ran to an appropriate position. After electrophoresis, iBlot2 (Life Technologies, IB21001) was used to transfer the separated samples onto PVDF film. The PVDF membrane was washed with double-distilled water and then blocked in TBST (Thermo Scientific, 28360) buffer containing 5% non-fat milk, for 2 hours. Blocked membrane was rinsed with tris-buffered saline tween-2 (Thermo Scientific, 28360, TBST) three times, 10 minutes each. Membrane was then incubated with 1:1000 diluted RAS Gi2D primary antibody (CST, cat #14429S) overnight at 4° C. Membrane was rinsed in a way described previously followed by 1 hour incubation of secondary antibody at room temperature. After washing the film for three times with TBST, ECL color developing solution was applied, and image was captured with Biorad Chemi Doc gel imager. The band gray value was quantified (Image Lab), and protein degradation level was calculated according to the following formulas:
Level of RAS G12D protein expression=(RAS G12D−compound/β-Actin)−compound/(RAS G12D−DMSO/β-Actin−DMSO)
Level of degradation (%)=(1−Rate of RAS G12D protein expression)×100
Symbols of −, +, ++, +++, ++++, +++++ indicate that the degradation level of Ras protein induced by test compounds was 10% or less, 10 to 30%, 30 to 60%, 60 to 70%, 70 to 75%, and greater than 75%, respectively. “NT” indicates not tested.
“NT” indicates not tested.

NCI-H358 cells (G12C) = test: Cell proliferation study (Cell Titer Glo, 72 hours), NCI-H358; assay type: cell-based; settings: Homo sapiens
Protocol: (§1) Aspc-1(Cobioer, CBP60546), GP2D(Cobioer, CBP60683), Mia paca2 (Cobioer, CBP60136), NCI-H358 (Cobioer, CBP60544), H727 (Cobioer, CBP60182), MKN-1 (Cobioer, CBP60486), and PSN1 (Cobioer, CBP61215) cells in exponential growth phase were seeded into a 96-well plate (Greiner, 655090) at density of 3E3/well. Cells were cultured overnight at 37° C. with 5% CO2. On the next day, cells were treated with compound at various concentrations for 72 hours in 37° C., 5% CO2 incubator (final DMSO concentration was 0.1%). After treatment, 100 μL Cell Tier Glo (Promega, G7573) were added to every well on the cell plate and incubated at room temperature (RT) for 10 minutes. Cell growth status was measured with Cell Tier Glo (Promega, G7573) following manufacturer's directions. Inhibition level was calculated according to the following formula: […]
(§2) where the “Maximum Signal” are signal of wells containing DMSO without compound; the “Minimum Signal” are signal of wells recorded at Day 0 prior to commencement of the experiment; and the “Test compound signal” are signal of wells containing compound at established concentrations.
(§3) The inhibition curve was obtained with GraphPad 7.0 software using four-parameter equation.

NCI-H727 cells (G12V) = test: Cell proliferation study (Cell Titer Glo, 72 hours), NCI-H727; assay type: cell-based; settings: Homo sapiens
Protocol: as §1, §2, §3

GP2D cells (G12D) = test: Cell proliferation study (Cell Titer Glo, 72 hours), GP2D; assay type: cell-based
Protocol: as §1, §2, §3

AsPc-1 cells (G12D) = test: Cell proliferation study (Cell Titer Glo, 72 hours), AsPc-1; assay type: cell-based; settings: Homo sapiens, ASPC1
Protocol: as §1, §2, §3

GP2D cells = test: Tumor xenograft study (GP2D); assay type: in vivo, Balb/c nude mice (Nu/Nu)
Protocol: All studies were conducted in accordance with all applicable regulations and guidelines of the Institutional Animal Care and Use Committee (IACUC). Mice were maintained under pathogen-free conditions, and food and water were provided ad libitum. 6-8-week-old female, Balb/c nude mice (Nu/Nu) were injected subcutaneously with GP2D cells in 100 μL of PBS and Matrigel matrix in the right hind flank with 5×10^6 cells 50:50 cells: Matrigel. Mouse health was monitored daily, and caliper measurements began when tumors were palpable. Tumor volume measurements were determined utilizing the formula 0.5×L×W^2 in which L refers to length and W refers to width of each tumor. When tumors reached an average tumor volume of ˜200 mm^3, mice were randomized into treatment groups. The animals were divided into at least five mice per group. Mice were treated with test compound. Animals were monitored daily, and body weights and tumors were measured twice per week. “TGI” means tumor growth inhibition value.

PSN-1 cells (G12R) = test: Cell proliferation study (Cell Titer Glo, 72 hours), PSN-1; assay type: cell-based; settings: Homo sapiens, PSN1
Protocol: as §1, §2, §3

MKN1 cells (WT) = test: Cell proliferation study (Cell Titer Glo, 72 hours), MKN1; assay type: cell-based; settings: Homo sapiens, MKN-1
Protocol: as §1, §2, §3

Mia paca2 cells (G12C) = test: Cell proliferation study (Cell Titer Glo, 72 hours), Mia paca2; assay type: cell-based; settings: Homo sapiens, MIA PaCa-2
Protocol: as §1, §2, §3

[1] = Pharmacokinetics in male ICR mice; assay type: in vivo; settings: mouse, plasma
[2] = ASPC1, 24 h, Aspc-1 cells, 24 hours, read-out: Rate of protein degradation (%)

| Compound | percent protein degradation at 0.005 µM (RAS G12D protein; [2]) | Dmax (RAS G12D protein; G12D in Aspc-1 cells) | DC50 (RAS G12D protein) | IC50 (NCI-H358 cells (G12C)) | IC50 (NCI-H727 cells (G12V)) | IC50 (AsPc-1 cells (G12D)) | percent protein degradation at 0.01 µM (RAS G12D protein; [2]) | percent protein degradation at 0.1 µM (RAS G12D protein; [2]) | IC50 (MKN1 cells (WT)) | IC50 (Mia paca2 cells (G12C)) | AUC(0-t) ([1]; IV (3 mg/kg)) | half-life ([1]; IV (3 mg/kg)) | AUC(0-t) ([1]; PO (10 mg/kg)) | half-life ([1]; PO (10 mg/kg)) | percent protein degradation at 0.05 µM (RAS G12D protein; ASPC1, 24 h, 0.05 μM compound, Aspc-1 cells, 24 hours, read-out: Rate of protein degradation (%)) | DC50 ranking among test compounds (RAS G12D protein; G12D in Aspc-1 cells) | IC50 (GP2D cells (G12D)) | TGI (%) (GP2D cells; PO, 30 mg/kg, bid, 14 days) | IC50 (PSN-1 cells (G12R)) | TGI (%) (GP2D cells; IP, 10 mg/kg, q3d, 21 days) |
| --- | --- | --- | --- | --- | --- | --- | --- | --- | --- | --- | --- | --- | --- | --- | --- | --- | --- | --- | --- | --- |
| CCc1c(F)ccc2cc(O)cc(-c3ncc4c(N5CCC[C@@](C)(O)C5)nc(OCC5(CN6CCC(C(=O)N7CCC8(CC7)CC(N7CCC(c9ccc%10c(C%11CCC(=O)NC%11=O)nn(C)c%10c9)CC7)C8)CC6)CC5)nc4c3F)c12 (stereo partly shown) [Compound 85] | – | – | 1 to 10 nM | – | 2.46 nM | 488 nM | 60 to 70% | 60 to 70% | 405 nM | – | – | – | – | – | – | – | 242 nM | – | 488 nM | – |
| CCc1c(F)ccc2cc(O)cc(-c3ncc4c(N5CCC[C@@](C)(O)C5)nc(OCC5(CN6CCC(CN7CCC(c8ccc9c(C%10CCC(=O)NC%10=O)nn(C)c9c8)CC7)CC6)CC5)nc4c3F)c12 (stereo partly shown) [Compound 101] | – | – | 1 to 10 nM | 23.9 nM | 16.4 nM | 109 nM | 70 to 75% | 70 to 75% | 409 nM | 9.51 nM | – | – | – | – | – | – | 0.214 nM | – | 463 nM | – |
| CCc1c(F)ccc2cc(O)cc(-c3ncc4c(N5CCC[C@@](C)(O)C5)nc(OCC5(CN6CCC7(CC6)CC(N6CCC(c8ccc9c(C%10CCC(=O)NC%10=O)nn(C)c9c8)CC6)C7)CC5)nc4c3F)c12 (stereo partly shown) [Compound 86] | – | 78% | 1 to 10 nM | 17.6 nM | 2.45 nM | 15.6 nM | > 75% | > 75% | 400 nM | 3.38 nM | 1330 ng·h/mL | 14.3 h | 103 ng·h/mL | 6.52 h | – | – | 0.158 nM | – | 459 nM | 75.8% |

Second part, led by results:

| percent protein degradation at 0.005 µM (RAS G12D protein; [2]) | Dmax (RAS G12D protein; G12D in Aspc-1 cells) | DC50 (RAS G12D protein) | IC50 (NCI-H358 cells (G12C)) | IC50 (NCI-H727 cells (G12V)) | IC50 (AsPc-1 cells (G12D)) | percent protein degradation at 0.01 µM (RAS G12D protein; [2]) | percent protein degradation at 0.1 µM (RAS G12D protein; [2]) | IC50 (MKN1 cells (WT)) | IC50 (Mia paca2 cells (G12C)) | AUC(0-t) ([1]; IV (3 mg/kg)) | half-life ([1]; IV (3 mg/kg)) | AUC(0-t) ([1]; PO (10 mg/kg)) | half-life ([1]; PO (10 mg/kg)) | percent protein degradation at 0.05 µM (RAS G12D protein; ASPC1, 24 h, 0.05 μM compound, Aspc-1 cells, 24 hours, read-out: Rate of protein degradation (%)) | DC50 ranking among test compounds (RAS G12D protein; G12D in Aspc-1 cells) | Compound | IC50 (GP2D cells (G12D)) | TGI (%) (GP2D cells; PO, 30 mg/kg, bid, 14 days) | IC50 (PSN-1 cells (G12R)) | TGI (%) (GP2D cells; IP, 10 mg/kg, q3d, 21 days) |
| --- | --- | --- | --- | --- | --- | --- | --- | --- | --- | --- | --- | --- | --- | --- | --- | --- | --- | --- | --- | --- |
| > 75% | 81% | 1 to 10 nM | 17.1 nM | 3.61 nM | 7.83 nM | – | – | – | – | – | – | – | – | – | – | CCc1c(F)ccc2cc(O)cc(-c3ncc4c(N5CCC[C@]6(CCO6)C5)nc(OCC5(CN6CCC7(CC6)CC(N6CCC(c8cc9c(cc8F)c(N8CCC(=O)NC8=O)nn9C)CC6)C7)CC5)nc4c3F)c12 [Compound 202] | 0.06 nM | 75.8% | – | – |
| > 75% | 70% | < 1 nM | 126 nM | 18.5 nM | 57.8 nM | – | – | – | – | – | – | – | – | > 75% | lowest DC50 value | CCc1c(F)ccc2cc(O)cc(-c3ncc4c(N5CCC[C@]6(CCO6)C5)nc(OCC5(CN6CCC7(CC6)CC(N6CCC(c8ccc9c%10c(cccc8%10)C(=O)N9C8CCC(=O)NC8=O)CC6)C7)CC5)nc4c3F)c12 (stereo partly shown) [Compound 179a] | 0.123 nM | – | – | – |
| – | 62% | < 1 nM | 438 nM | 0.46 nM | 65.6 nM | – | – | – | – | 1280 ng·h/mL | 7.97 h | – | – | – | – | CCc1c(F)ccc2cc(O)cc(-c3ncc4c(N5CCC[C@@](C)(O)C5)nc(OCC5(CN6CCC7(CC6)CC(N6CCC(c8ccc9c%10c(cccc8%10)C(=O)N9C8CCC(=O)NC8=O)CC6)C7)CC5)nc4c3F)c12 (stereo partly shown) [Compound 137] | – | – | – | – |
